{"source": "patent US20230322837A1", "about": "“PREPARATION METHOD FOR AND APPLICATION OF CLASS OF STELLATE BIFUNCTIONAL COMPOUNDS TARGETING SPIKE PROTEIN AGAINST RESPIRATORY TRACT INFECTION VIRUS AND SALT THEREOF” (priority 2020, published 2023)", "key": {"[1]": {"tested_on": "Lentivirus-NC virus infection of H1299 cells", "settings": "different virus titers (MOI 5, 10, 20), FIGS. 7 and 9", "experimental": "H1299 Human lung cancer cells, cultured with RPMI-1640 10% fetal bovine serum in an incubator with 5% CO2 and saturated humidity at 37° C. • RPMI-1640 + 10% Fetal Bovine Serum • PBS (Life Science Products&Services) • Trypsin-EDTA Solution (Gibco) • 24-well plate (Corning) • Lentivirus-NC virus solution (GenePharma, 1×10^9 TU/mL)\nPrinciples and procedures for virus infection experiment • 1."}, "plasma coagulation [2]": {"tested_on": "plasma coagulation", "settings": "for APTT: in vitro, rabbit platelet poor plasma, x±s, n = 3", "experimental": "(§1) Coagulation is a complex process involving a series of coagulation factors, which essentially include two pathways, “intrinsic coagulation pathway” and “extrinsic coagulation pathway”. Activated partial thromboplastin time (APTT), prothrombin time (PT), and thrombin time (TT) are adopted usually in the laboratory to evaluate the anticoagulant effect.\n(§2) New Zealand rabbits were anaesthetized with chloral hydrate, heart puncture was conducted to collect blood into an anticoagulant tube containing ⅒ vol 3.8% sodium citrate, followed by centrifuging at 3000 rpm for 15 min, supernatant was collected to obtain platelet poor plasma which was stored in a refrigerator for later use.\n(§3) The compounds were prepared with DMSO to obtain stock solutions with a concentration of 10 mM. Samples to be tested were diluted with normal saline during the test, with a final concentration of 50 µM, 12.5 µM, 3.13 µM, 0.78 µM, 0.20 µM, and 0.05 µM.\nAPTT Assay: 100 µL of plasma was mixed well with 50 µL of samples to tested respectively, the mixture was pre-heated at 37° C. for 2 min, then 50 µL of APTT reagent was added, followed by incubation at 37° C. for 3 min, addition of 50 µL of 0.025 mol/L CaCl2, and detection on an automatic blood coagulation analyzer to record the coagulation time.\n(§4) One-way analysis of variance (One-Way ANOVA) was performed for multi-group comparison; pairwise comparison for means among groups was performed, with Dunnett’s multiple comparisons test in case of homogeneity of variance, and Dunnett’s T3 multiple comparisons test in case of heterogeneity of variance. P <0.05 means statistical significance."}, "plasma coagulation [3]": {"tested_on": "plasma coagulation", "settings": "in vitro, rabbit platelet poor plasma, x±s, n = 3", "experimental": "as §1, §2, §3\nPT Assay: 50 µL of plasma was mixed well with 20 µL of samples to be tested respectively, the mixture was pre-heated at 37° C. for 2 min, followed by incubation at 37° C. for 3 min, and addition of 100 µL of PT reagent. The mixture was mixed well and tested to record the coagulation time.\nas §4"}, "plasma coagulation [4]": {"tested_on": "plasma coagulation", "settings": "in vitro, rabbit platelet poor plasma, x±s, n = 3", "experimental": "as §1, §2, §3\nTT Assay: 100 µL of prepared plasma was mixed well with 50 µL of the sample mixture to be tested, and pre-heated at 37° C. for 2 min, followed by addition of 50 µL of TT reagent to the mixture and detection to record results of the instrument.\nas §4", "remark": "listed apart in the source"}}, "note": "Where two headings read alike, the source gives them in different places."}
{"smiles": "O=C(Oc1ccc(-c2coc3c(OC(=O)c4cc(O)c(O)c(O)c4)cc(OC(=O)c4cc(O)c(O)c(O)c4)c(OC(=O)c4cc(O)c(O)c(O)c4)c3c2=O)cc1)c1cc(O)c(O)c(O)c1", "note": "[Compound 4]", "values": [{"measurement": "inhibition of virus infection in cells", "setting": "[1]; 10 µM concentration", "value": "significantly inhibited virus infection in cells"}, {"measurement": "inhibition of virus infection in cells", "setting": "[1]; 20 µM concentration", "value": "significantly inhibit virus infection in cells"}]}
{"smiles": "O=C(O)CC1OC(O)C(OC(=O)c2cc(O)c(O)c(O)c2)C(OC(=O)c2cc(O)c(O)c(O)c2)C1OC(=O)c1cc(O)c(O)c(O)c1", "note": "(stereo not shown) [Compound 6]", "values": [{"measurement": "inhibition of virus infection in cells", "setting": "[1]; 20 µM concentration", "value": "significantly inhibit virus infection in cells"}, {"measurement": "inhibition of plasma coagulation (coagulation indexes APTT, PT, and TT)", "setting": "plasma coagulation [2]; dose gradients 50.00, 12.50, 3.13, 0.78, 0.20, 0.05 (printed µL), covers APTT, PT and TT", "value": "dose-dependently inhibit plasma coagulation"}, {"measurement": "APTT", "setting": "plasma coagulation [2]; 0.05 µM", "value": "20.12 ± 0.09", "unit": "s"}, {"measurement": "APTT", "setting": "plasma coagulation [2]; 0.20 µM", "value": "24.03 ± 1.05", "unit": "s"}, {"measurement": "APTT", "setting": "plasma coagulation [2]; 0.78 µM", "value": "26.84 ± 0.79", "unit": "s"}, {"measurement": "APTT", "setting": "plasma coagulation [2]; 3.13 µM", "value": "37.72 ± 1.83", "unit": "s"}, {"measurement": "APTT", "setting": "plasma coagulation [2]; 12.50 µM", "value": "75.11 ± 2.58", "unit": "s"}, {"measurement": "APTT", "setting": "plasma coagulation [2]; 50.00 µM", "value": "106.51 ± 0.94", "unit": "s"}, {"measurement": "PT", "setting": "plasma coagulation [3]; 0.05 µM", "value": "9.76 ± 0.85", "unit": "s"}, {"measurement": "PT", "setting": "plasma coagulation [3]; 0.20 µM", "value": "10.11 ± 0.30", "unit": "s"}, {"measurement": "PT", "setting": "plasma coagulation [3]; 0.78 µM", "value": "10.54 ± 0.37", "unit": "s"}, {"measurement": "PT", "setting": "plasma coagulation [3]; 3.13 µM", "value": "12.83 ± 0.19", "unit": "s"}, {"measurement": "PT", "setting": "plasma coagulation [3]; 12.50 µM", "value": "13.73 ± 0.17", "unit": "s"}, {"measurement": "PT", "setting": "plasma coagulation [3]; 50.00 µM", "value": "16.66 ± 0.45", "unit": "s"}, {"measurement": "TT", "setting": "plasma coagulation [4]; 0.05 µM", "value": "23.35 ± 0.31", "unit": "s"}, {"measurement": "TT", "setting": "plasma coagulation [4]; 0.20 µM", "value": "22.90 ± 0.09", "unit": "s"}, {"measurement": "TT", "setting": "plasma coagulation [4]; 0.78 µM", "value": "23.95 ± 0.07", "unit": "s"}, {"measurement": "TT", "setting": "plasma coagulation [4]; 3.13 µM", "value": "25.25 ± 0.27", "unit": "s"}, {"measurement": "TT", "setting": "plasma coagulation [4]; 12.50 µM", "value": "28.89 ± 0.68", "unit": "s"}, {"measurement": "TT", "setting": "plasma coagulation [4]; 50.00 µM", "value": "38.87 ± 0.77", "unit": "s"}]}
